According to patent publication US12527774B2, “Estrogen-related receptor alpha modulators” (LEAD PHARMA HOLDING B.V., priority 2019, dated 2026):

molecular target: ERRα ligand binding domain (ERRα-LBD) (Homo sapiens (Human), UniProt P11474); assay: ERRα AlphaScreen Assay; type: biochemical; conditions: disruption of binding of ERRα-LBD protein to biotin-PGC1α-3 co-activator peptide
In short: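 His-SUMO-tagged ERRα-LBD from E. coli (0.81 nM) preincubated 1 h at room temperature with compound, streptavidin donor and Ni-chelate acceptor beads (10 μg/mL each), then 2 h with 15 nM biotin-PGC1α-3 peptide (aa 202–220). Buffer: 50 mM Tris-HCl pH 7.5, 100 mM NaCl, 5 mM TCEP, 1% DMSO. Four-parameter IC50; mean pIC50 of replicate values.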

Sequence of ERRα ligand binding domain (ERRα-LBD) (P11474 193-421): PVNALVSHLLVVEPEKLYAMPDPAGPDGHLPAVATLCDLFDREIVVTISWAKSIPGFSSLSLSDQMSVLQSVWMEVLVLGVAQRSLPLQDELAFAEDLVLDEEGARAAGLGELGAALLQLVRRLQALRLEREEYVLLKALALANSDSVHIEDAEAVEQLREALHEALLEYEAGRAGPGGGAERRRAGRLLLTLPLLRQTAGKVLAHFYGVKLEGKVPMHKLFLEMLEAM

Row | mean pIC50 | Structure (SMILES)
1 | ≥ 8 | COc1cc(C2CC(=O)Nc3n[nH]cc32)ccc1OCc1ccc(N)cc1C(F)(F)F (centres unmarked) [Example 135, 4-(4-{[4-amino-2-(trifluoromethyl)phenyl]methoxy}-3-methoxyphenyl)-2H,4H,5H,6H, 7H-pyrazolo[3,4-b]pyridin-6-one]
2 | ≥ 8 | COc1cc(C2CC(=O)Nc3n[nH]nc32)ccc1OCc1ccc(N)cc1C(F)(F)F (centres unmarked) [Example 136, 7-(4-{[4-amino-2-(trifluoromethyl)phenyl]methoxy}-3-methoxyphenyl)-2H,4H,5H,6H, 7H-[1,2,3]triazolo[4,5-b]pyridin-5-one]
3 | ≥ 8 | COc1cc(C2CC(=O)Nc3n[nH]cc32)ccc1OCc1ccc(N(C)C)cc1C(F)(F)F (centres unmarked) [Example 138, 4-(4-{[4-(dimethylamino)-2-(trifluoromethyl)phenyl]methoxy}-3-methoxyphenyl)-2H,4H,5H,6H, 7H-pyrazolo[3,4-b]pyridin-6-one]
4 | ≥ 8 | CNc1ccc(COc2ccc(C3CC(=O)Nc4n[nH]cc43)cc2OC)c(C(F)(F)F)c1 (centres unmarked) [Example 141, 4-(3-methoxy-4-{[4-(methylamino)-2-(trifluoromethyl)phenyl]methoxy}phenyl)-2H,4H,5H,6H,7H-pyrazolo[3,4-b]pyridin-6-one]
5 | ≥ 8 | COc1cc(C2CC(=O)Nc3n[nH]cc32)ccc1OCc1ccc(O)cc1C(F)(F)F (centres unmarked) [Example 154, 4-(4-{[4-hydroxy-2-(trifluoromethyl)phenyl]methoxy}-3-methoxyphenyl)-2H,4H,5H,6H, 7H-pyrazolo[3,4-b]pyridin-6-one]
6 | ≥ 8 | COc1cc(-c2cc(=O)[nH]c3n[nH]cc23)ccc1OCc1ccc(N)cc1C(F)(F)F [Example 173, 4-(4-{[4-amino-2-(trifluoromethyl)phenyl]methoxy}-3-methoxyphenyl)-2H,6H,7H-pyrazolo[3,4-b]pyridin-6-one]

same assay, conditions: disruption of binding of ERRα-LBD protein to biotin-PGC1α-3 co-activator peptide; read-out: mean pIC50 (converted)

Row | IC50 [nM] | Structure (SMILES)
7 | 100 to 1000 | COc1cc(C2CC(=O)Nc3n[nH]cc32)ccc1OCc1ccc(C(=O)O)cc1C(F)(F)F (centres unmarked) [Example 120, 4-(2-methoxy-4-{6-oxo-2H,4H,5H,6H, 7H-pyrazolo[3,4-b]pyridin-4-yl}phenoxymethyl)-3-(trifluoromethyl)benzoic acid]
8 | 100 to 1000 | COc1cc(C2CC(=O)Nc3n[nH]cc32)ccc1OCc1ccc(C(N)=O)cc1C(F)(F)F (centres unmarked) [Example 121, 4-(2-methoxy-4-{6-oxo-2H,4H,5H,6H, 7H-pyrazolo[3,4-b]pyridin-4-yl}phenoxymethyl)-3-(trifluoromethyl)benzamide]
9 | 100 to 1000 | CCCOC(=O)c1ccccc1COc1ccc(C2CC(=O)Nc3n[nH]cc32)cc1OC (centres unmarked) [Example 125, propyl 2-(2-methoxy-4-{6-oxo-2H,4H,5H,6H,7H-pyrazolo[3,4-b]pyridin-4-yl}phenoxymethyl)benzoate]
10 | 100 to 1000 | CCCCOC(=O)c1ccccc1COc1ccc(C2CC(=O)Nc3n[nH]cc32)cc1OC (centres unmarked) [Example 126, butyl 2-(2-methoxy-4-{6-oxo-2H,4H,5H,6H,7H-pyrazolo[3,4-b]pyridin-4-yl}phenoxymethyl)benzoate]
11 | 100 to 1000 | COc1cc(C2CC(=O)Nc3n[nH]cc32)ccc1OCc1ccccc1C(=O)OC(C)C (centres unmarked) [Example 127, propan-2-yl 2-(2-methoxy-4-{6-oxo-2H,4H,5H,6H,7H-pyrazolo[3,4-b]pyridin-4-yl}phenoxymethyl)benzoate]
12 | 10 to 100 | CCOC(=O)c1cc(C2CC(=O)Nc3n[nH]cc32)ccc1OCc1ccccc1C(F)(F)F (centres unmarked) [Example 128, ethyl 5-{6-oxo-2H,4H,5H,6H,7H-pyrazolo[3,4-b]pyridin-4-yl}-2-{[2-(trifluoromethyl)phenyl]methoxy}benzoate]
13 | 100 to 1000 | NC(=O)c1cc(C2CC(=O)Nc3n[nH]cc32)ccc1OCc1ccccc1C(F)(F)F (centres unmarked) [Example 130, 5-{6-oxo-2H,4H,5H,6H, 7H-pyrazolo[3,4-b]pyridin-4-yl}-2-{[2-(trifluoromethyl)phenyl]methoxy}benzamide]
14 | 100 to 1000 | O=C1CC(c2ccc(OCc3ccccc3C(F)(F)F)c(C(=O)Nc3nnc[nH]3)c2)c2c[nH]nc2N1 (centres unmarked) [Example 131, 5-{6-oxo-2H, 4H,5H, 6H, 7H-pyrazolo[3,4-b]pyridin-4-yl}-N-(4H-1,2,4-triazol-3-yl)-2-{[2-(trifluoromethyl)phenyl]methoxy}benzamide]
15 | 100 to 1000 | O=C1CC(c2ccc(OCc3ccccc3C(F)(F)F)c(C(=O)OCCO)c2)c2c[nH]nc2N1 (centres unmarked) [Example 132, 2-hydroxyethyl 5-{6-oxo-2H,4H,5H,6H, 7H-pyrazolo[3,4-b]pyridin-4-yl}-2-{[2-(trifluoromethyl)phenyl]methoxy}benzoate]
16 | 100 to 1000 | COc1cc(C2CC(=O)Nc3c[nH]nc32)ccc1OCc1ccc(N)cc1C(F)(F)F (centres unmarked) [Example 137, 7-(4-{[4-amino-2-(trifluoromethyl)phenyl]methoxy}-3-methoxyphenyl)-2H,4H,5H,6H, 7H-pyrazolo[4,3-b]pyridin-5-one]
17 | 10 to 100 | COc1cc(C2CC(=O)Nc3n[nH]cc32)ccc1OCc1ccc(NC(C)=O)cc1C(F)(F)F (centres unmarked) [Example 139, N-{4-[(2-methoxy-4-{6-oxo-2H,4H,5H,6H,7H-pyrazolo[3,4-b]pyridin-4-yl}phenoxy)methyl]-3-(trifluoromethyl)phenyl}acetamide]
18 | 100 to 1000 | COC(=O)Cc1ccc(COc2ccc(C3CC(=O)Nc4n[nH]cc43)cc2OC)c(C(F)(F)F)c1 (centres unmarked) [Example 148, methyl 2-[4-(2-methoxy-4-{6-oxo-2H,4H,5H,6H,7H-pyrazolo[3,4-b]pyridin-4-yl}phenoxymethyl)-3-(trifluoromethyl)phenyl]acetate]
19 | 100 to 1000 | COc1cc(C2CC(=O)Nc3n[nH]cc32)ccc1OCc1ccc(CC(=O)O)cc1C(F)(F)F (centres unmarked) [Example 151, 2-{4-[(2-methoxy-4-{6-oxo-2H,4H,5H,6H, 7H-pyrazolo[3,4-b]pyridin-4-yl}phenoxy)methyl]-3-(trifluoromethyl)phenyl}acetic acid]
20 | 10 to 100 | COc1cc(C2CC(=O)Nc3n[nH]cc32)ccc1OCc1ccc(C(C)(C)CO)cc1C(F)(F)F (centres unmarked) [Example 152, 4-(4-{[4-(1-hydroxy-2-methylpropan-2-yl)-2-(trifluoromethyl)phenyl]methoxy}-3-methoxyphenyl)-2H,4H,5H,6H, 7H-pyrazolo[3,4-b]pyridin-6-one]
21 | 10 to 100 | COc1cc(C2CC(=O)Nc3n[nH]cc32)ccc1OCc1ccc(CC(C)(C)O)cc1C(F)(F)F (centres unmarked) [Example 153, 4-(4-{[4-(2-hydroxy-2-methylpropyl)-2-(trifluoromethyl)phenyl]methoxy}-3-methoxyphenyl)-2H,4H,5H,6H,7H-pyrazolo[3,4-b]pyridin-6-one]
22 | 10 to 100 | COc1cc(C2CC(=O)Nc3c[nH]nc32)ccc1OCc1ccc(CCO)cc1C(F)(F)F (centres unmarked) [Example 156, 7-(4-{[4-(2-hydroxyethyl)-2-(trifluoromethyl)phenyl]methoxy}-3-methoxyphenyl)-2H,4H,5H,6H, 7H-pyrazolo[4,3-b]pyridin-5-one]
23 | 100 to 1000 | COc1cc(C2CC(=O)Nc3n[nH]cc32)ccc1OCc1cccc(OCCO)c1C(F)(F)F (centres unmarked) [Example 160, 4-(4-{[3-(2-hydroxyethoxy)-2-(trifluoromethyl)phenyl]methoxy}-3-methoxyphenyl)-2H,4H,5H,6H,7H-pyrazolo[3,4-b]pyridin-6-one]
24 | 100 to 1000 | Nc1cc(C2CC(=O)Nc3n[nH]cc32)ccc1OCc1ccccc1C(F)(F)F (centres unmarked) [Example 161, 4-(3-amino-4-{[2-(trifluoromethyl)phenyl]methoxy}phenyl)-2H,4H,5H,6H, 7H-pyrazolo[3,4-b]pyridin-6-one]
25 | 100 to 1000 | CN(C)c1cc(OCc2ccccc2C(F)(F)F)ccc1C1CC(=O)Nc2n[nH]cc21 (centres unmarked) [Example 162, 4-[2-(dimethylamino)-4-{[2-(trifluoromethyl)phenyl]methoxy}phenyl]-2H,4H,5H,6H, 7H-pyrazolo[3,4-b]pyridin-6-one]
26 | 10 to 100 | COCCCOc1cc(C2CC(=O)Nc3n[nH]cc32)ccc1OCc1ccccc1C(F)(F)F (centres unmarked) [Example 163, 4-[3-(3-methoxypropoxy)-4-{[2-(trifluoromethyl)phenyl]methoxy}phenyl]-2H,4H,5H,6H,7H-pyrazolo[3,4-b]pyridin-6-one]
27 | 10 to 100 | COCCOc1cc(C2CC(=O)Nc3n[nH]cc32)ccc1OCc1ccccc1C(F)(F)F (centres unmarked) [Example 164, 4-[3-(2-methoxyethoxy)-4-{[2-(trifluoromethyl)phenyl]methoxy}phenyl]-2H,4H,5H,6H, 7H-pyrazolo[3,4-b]pyridin-6-one]
28 | 100 to 1000 | O=C1CC(c2cnc(OCc3ccccc3C(F)(F)F)nc2)c2c[nH]nc2N1 (centres unmarked) [Example 165, 4-(2-{[2-(trifluoromethyl)phenyl]methoxy}pyrimidin-5-yl)-2H,4H,5H,6H, 7H-pyrazolo[3,4-b]pyridin-6-one]
29 | 100 to 1000 | COc1cc(C2CC(=N)Nc3n[nH]cc32)ccc1OCc1ccccc1C(F)(F)F (centres unmarked) [Example 167, 4-(3-methoxy-4-{[2-(trifluoromethyl)phenyl]methoxy}phenyl)-2H,4H,5H,6H, 7H-pyrazolo[3,4-b]pyridin-6-imine]
30 | 100 to 1000 | COc1cc(-c2cc(=O)[nH]c3[nH]ccc23)ccc1OCc1ccccc1C(F)(F)F [Example 168, 4-(3-methoxy-4-{[2-(trifluoromethyl)phenyl]methoxy}phenyl)-1H,6H, 7H-pyrrolo[2,3-b]pyridin-6-one]
31 | 10 to 100 | COc1ccccc1COc1ccc(-c2cc(=O)[nH]c3n[nH]cc23)cc1OC [Example 171, 4-{3-methoxy-4-[(2-methoxyphenyl)methoxy]phenyl}-2H,6H, 7H-pyrazolo[3,4-b]pyridin-6-one]
32 | 100 to 1000 | COc1cc(-c2cc(=O)[nH]c3n[nH]cc23)ccc1OCc1ccncc1C(F)(F)F [Example 172, 4-(3-methoxy-4-{[3-(trifluoromethyl)pyridin-4-yl]methoxy}phenyl)-2H,6H, 7H-pyrazolo[3,4-b]pyridin-6-one]
